The values below come from patent publication US5321037A, “Isoxazole derivatives for use as cerebro-active drugs and central muscle relaxants” (Sankyo Company, Limited, priority 1986, dated 1994).

SMILES strings stand for the structures. Counter-ions that a name gives are not always drawn. Like-named read-outs stand apart in the source and are kept apart here.

One data set relates to thiopental anesthesia. Description: Potentiation of thiopental anesthesia (mice). In kind it is in vivo, mouse (ddY strain). On the procedure: In the test method, male adult mice of ddY strain each weighing 20 to 30 g were used as divided groups each made up of 5 to 7 mice. Test compounds suspended in 0.5% CMC solution were orally administered. After one hour, thiopental (30 mg/kg) was injected into the tail vein, and the time required for the mouse to recover the righting reflex was measured.

The test system of data set [1] is decerebrate rigidity in rats. Description: Suppression of decerebrate rigidity in rats. In kind it is in vivo, rat. An excerpt: The suppression of decerebrate rigidity in laboratory animals, such as rats, is a well known model for control of human spasticity and/or rigidity.
In the test method, a rat was anesthetized with halothane and fixed on a stereotaxic apparatus (SR-5, Narishige). In accordance with the brain atlas by Pellegrino et al., [L. J. Pellegrino, A. S. Pellegrino & A. J. Cushman: A Stereotaxic Atlas of the Rat Brain, Plenum Press, New York and London (1967)], an electrode 0.7 mm in diameter, which was insulated except for 1 mm at the tip, was inserted bilaterally into the midbrain reticular formation (AP: 0, L: ±1.5, H: -3.0). A clip serving as the reference electrode was fixed on the temporal muscle. Through these electrodes, a high frequency electric current (100 KHz, 10 to 20 mA) was applied from a lesion generator (Glass Co., LM4A) for 2 to 3 minutes to cauterize electrically this brain region.
The rat was then immediately set free from the stereotaxic apparatus. A polyethylene cannula was inserted into the duodenum and fixed with an acrylic resin (Aron Alfa, Sankyo Co., Ltd.). After completion of these operations, halothane anesthesia was immediately discontinued.
After 1.5 hours, when the animal awoke from the anesthesia, the rat was fixed on an apparatus devised in our laboratory for a hind leg fixation. Both hind legs were fixed at the anterior part of the ankle joints. Both hindlimb paws were then pushed in 4 mm for 6 seconds in every minute. The resulting repulsive tension was drawn on a polygraph through a strain gauge.
The test compounds were suspended in a 0.5% w/v CMC (carboxymethyl cellulose) aqueous solution and were administered orally (p.o.) or intraperitoneally (i.p.).
The results are summarized in the following Table 7, where the compounds of the present invention are identified by the number of the foregoing Example in which each was prepared, Compound X is the known compound eperisone hydrochloride, and Compound Y is the known compound afloqualone.

Another data set concerns spinal reflex in cats. Description: Effect on spinal reflex in cats. The format is in vivo, cat. On the procedure:
Adult cats weighing 3.0 to 4.5 kg each were used. After induction of anesthesia with ether, the animal was anesthetized by intravenous injection of 50 mg/kg of a-chloralose. After the trachea was cannulated, the animal was fixed on a stereotaxic apparatus, and the lumbosacral spinal cord was exposed by laminectomy from L3 to S1. The ventral roots of the right side were cut from L6 to S1 as distal as possible and the cut ends were ligated with cotton thread previously immersed in Ringer's solution. The exposed spinal cord was covered with warmed mineral oil and maintained at 37° C. The ventral root, either L7 or S1, was fixed on a pair of platinum wire electrodes. A pair of collar-type electrodes was implanted on the ipsilateral tibial nerve and the saphenous nerve, for stimulation. After completion of all these operations, the cat was immobilized with pancronium bromide (0.5 mg/kg, i.v.) and maintained by artificial respiration (40/minute). Recording was started at least 2 hours after withdrawal of ether anesthesia. A single square pulse (0.01 to 0.1 msecond pulse width, supramaximal intensity) was applied to the nerve at a frequency of 0.3 Hz from an electronic stimulator. […] In a similar manner to Experiment 2, the blood pressure, heart beat and body temperature of the animal were recorded and monitored. Compounds to be tested were also administered in a similar manner.

In data set [2] the test system is decerebrate rigidity (cats). Nature of the data set: Suppression of decerebrate rigidity (cats). In kind it is in vivo, cat. An excerpt:
Adult cats each weight 3.0 to 4.5 kg were used. Under ether anesthesia, the trachea was cannulated and the common carotid arteries were ligated at both sides. The cat was decerebrated by suction at the precollicular level. Ether anesthesia was then immediately discontinued. A pair of needle electrodes was inserted into the neck muscle in order to pick up any EMG muscular discharges. The EMG discharge was amplified and recorded on a pen-writing recorder, along with an integration of the EMG discharge. Recording was started at least 2 hours after withdrawal of anesthesia. Blood pressure induced from the femoral artery, as well as body temperature and heart beat, were recorded and monitored throughout the experiment.
After stable EMG discharges were obtained, the test compounds suspended in 0.5% CMC solution were administered into the duodenum through a previously inserted cannula. The effect of the test compound was expressed as the ratio of the integrated EMG discharge after administration relative to the value before administration.

For data set [3], the system named is ischemia-induced neurological symptoms in SHR SP. Nature of the data set: Improvement in ischemia-induced neurological symptoms in Spontaneously Hypertensive Rats Stroke Prone (SHR SP) caused by ligation of the bilateral common carotid arteries. The format is in vivo, rat (SHR SP). As to the method: The test animals employed were male adult SHR SPs (13 or 15 weeks old). They were used in groups each consisting of about 10 animals. Under halothane anesthesia, both common carotid arteries of each animal were ligated to prepare a brain ischemia model. The halothane anesthesia was stopped immediately after the ligation, and then the time taken to recover the righting reflex, the onset time of convulsions and the survival time were determined. The test solution was prepared in the same manner as described in Experiment 1 and was administered to the animal intraperitoneally 30 minutes before the ligation. A 0.5% CMC solution was administered to the control group in the same manner. The statistical analysis was carried out in a similar manner to that in Experiment 1. The statistical analysis of the survival rate was carried out by the X^2 test.

The test system of data set [4] is ischemia-induced neurological symptoms in the Mongolian Gerbil. Nature of the data set: Improvement of ischemia-induced neurological symptoms in the Mongolian gerbil caused by ligation of the bilateral common carotid arteries for 30 minutes. In kind it is in vivo. As to conditions: 100 mg/kg i.p. upon recommencement of blood flow. On the procedure:
The test animals employed were male adult Mongolian gerbils (16-20 weeks old). These were used in groups each consisting of from 10 to 20 animals. The bilateral common carotid arteries were occluded for 30 minutes under anesthesia with pentobarbital (30 mg/kg, intraperitoneally) and halothane (it was introduced to a mixture of 95% oxygen and 5% carbon dioxide at a concentration of 1.5% by volume) and then the occlusion was released to allow the blood to flow. The animal was then placed in a supine position, and we measured (1) the time taken from recommencement of blood flow until convulsions occurred and (2) the survival time. Observations to determine the onset time of convulsions and the survival time were continued for 6 and 7 hours, respectively, after recommencement of blood flow. […] The compound to be tested was suspended in a 0.5% w/v carboxymethyl cellulose (CMC) aqueous solution and administered intraperitoneally upon recommencement of blood flow in the common carotid arteries. On the other hand, a 0.5% CMC solution containing no test compound was administered likewise to a control group. Statistical analysis was carried out using the Mann-Whitney U-test between the control group and the test group.

Data set [5] deals with survival time under hypoxic conditions. Nature of the data set: Effect on survival time under hypoxic conditions. The note with it: 4% oxygen, 96% nitrogen. The format is in vivo, mouse (ddY strain). An excerpt: The test animals employed were male adult mice (5 weeks old and about 30 g body weight) of the ddY strain. The animals were employed in groups, each containing from 7 to 17 animals. Each animal was given intraperitoneally a test compound in suspension (as in the preceding Experiments). Thirty (30) minutes after this administration, 2 or 3 animals were placed in a 1.5 liter gas chamber made of acrylate resin, and a mixture of 4% by volume oxygen and 96% nitrogen was supplied at the rate of 10 liters/minute. The time of death of the animal was measured (determined by the cessation of respiration).

Where [6] appears, read: 100 mg/kg, administered as in Experiment 2.
Setting [7] is: 100 mg/kg, after administration.
Where [8] appears, read: 30 mg/kg i.p. 30 minutes before ligation.
[9] abbreviates: 100 mg/kg i.p. 30 minutes before ligation.

On to `O=c1c(Cl)c(-c2ccccc2)on1CC(O)CN1CCOCC1` (centres unmarked) [Compound 2a], for which the Anesthesia time with thiopental anesthesia (100 mg/kg p.o., thiopental 30 mg/kg after one hour) amounted to 329.1 ± 81.2 s. Besides, the “Drowsiness (the adverse effect), implied” value in the data set on thiopental anesthesia (compared with afloqualone) is given as “induce drowsiness (the adverse effect) less than afloqualone”. Also, the “Prolongation of the duration of thiopental-induced anesthesia, in words” value in the data set on thiopental anesthesia (in comparison with eperisone hydrochloride) is on record as “did not significantly prolong the duration of thiopental-induced anesthesia”. Further, the “Duration of the effect” value in data set [1] (30 mg/kg p.o.) was above 90 min; in data set [1] (50 mg/kg i.p.), above 120 min; in data set [1] (50 mg/kg p.o.) it was above 90 min; in data set [1] (100 mg/kg p.o.), above 90 min. For the same compound, the “Onset of the effect” value worked out at 5 min in data set [1] (30 mg/kg p.o.), 10 min in data set [1] (50 mg/kg i.p.), 5 min in data set [1] (50 mg/kg p.o.) and 5 min in data set [1] (100 mg/kg p.o.). Also, the inhibition in vivo at 50 mg/kg in data set [1] (Rattus norvegicus, ip, 50 mg/kg i.p., read-out: Maximum inhibition) was 50%; in data set [1] (Rattus norvegicus, po, 50 mg/kg p.o., read-out: Maximum inhibition) it was 90%. Also, in data set [1] (Rattus norvegicus, po, 30 mg/kg p.o., read-out: Maximum inhibition), the inhibition in vivo at 30 mg/kg is 55%. The inhibition in vivo at 100 mg/kg in data set [1] (Rattus norvegicus, po, 100 mg/kg p.o., read-out: Maximum inhibition) was found to be 100%. Moreover, in the data set with spinal reflex in cats (100 mg/kg), the “Duration of the effect on spinal reflexes” value is “about 2 hours”. In addition, the Monosynaptic reflex result with spinal reflex in cats (setting [6]) is listed as “little affected”. In addition, the Polysynaptic reflex result in the data set on spinal reflex in cats (setting [6]) is given as “remarkably inhibited”. Further, the Spino-bulbo-spinal reflex entry in the data set on spinal reflex in cats (setting [6]) is “remarkably inhibited”. Further, the “Onset of the effect on spinal reflexes” value in the data set with spinal reflex in cats (setting [7]) was found to be 5 min. Also, in the data set on spinal reflex in cats (setting [7]), the “Time of maximum effect on spinal reflexes” value turned out to be 30 min. In the data set on spinal reflex in cats (in vivo), the “Mechanism shown by spinal reflexes” value was “interneuron blockers”. In addition, the “Inhibition of decerebrate rigidity” value in data set [2] (100 mg/kg intraduodenal, 5 minutes after administration) was “About 30%”; in data set [2] (100 mg/kg intraduodenal, 1 hour after administration), “about 65%”. Besides, the “Duration of inhibitory effects” value in data set [2] (100 mg/kg intraduodenal, throughout the observation period) is at least 2 h. Further, the “Side effects and duration of action compared with eperisone hydrochloride” value in data set [2] (compared with eperisone hydrochloride) is “weaker in side effects and of longer action than eperisone hydrochloride”. For the same compound, the “Onset time of convulsions and survival time, in words” value in data set [3] (100 mg/kg) is listed as “prolonged onset time of convulsions, survival time significantly”.
Consider `O=c1c(Cl)c(-c2ccccc2)on1CC(O)CN1CCOCC1` (centres unmarked) [2a hydrochloride], for which, in data set [4], the “Onset time of convulsions” value came out at 289.4 min and the Survival time turned out to be 375.7 min. In addition, in data set [3] (setting [8]), the “Onset time of convulsions” value stood at 99.8 ± 27.8 min, the “Recovery time of righting reflex” value was 8.0 ± 1.7 min and the Survival time worked out at 232.1 ± 35.8 min. Also, in data set [3] (setting [9]), the “Onset time of convulsions” value is 103.5 ± 16.2 min, the “Recovery time of righting reflex” value came to 7.6 ± 1.7 min and the Survival time was determined as 233.0 ± 28.7 min.
As to `Cl.OC(COc1cc(-c2ccccc2)on1)CN1CCOCC1` (centres unmarked) [Example 20, 3-(2-Hydroxy-3-morpholinopropoxy)-5-phenylisoxazole hydrochloride], the Survival time in data set [5] (30 mg/kg i.p.) was found to be 124.6 ± 15.4 s; in data set [5] (100 mg/kg i.p.) it was 349.5 ± 59.1 s; in data set [3] (setting [8]), 295.9 ± 32.3 min; in data set [3] (setting [9]), 371.9 ± 26.3 min. In addition, the “Onset time of convulsions and survival time, in words” value was “prolonged onset time of convulsions, survival time significantly” in data set [3] (30 mg/kg) and “prolonged onset time of convulsions, survival time significantly” in data set [3] (100 mg/kg). The “Onset time of convulsions” value in data set [3] (setting [8]) was found to be 71.9 ± 9.3 min; in data set [3] (setting [9]) it was 176.7 ± 25.8 min. Also, the “Recovery time of righting reflex” value in data set [3] (setting [8]) came out at 6.5 ± 0.6 min; in data set [3] (setting [9]), 6.9 ± 0.9 min. Further, the Survival rate in data set [3] (setting [8]) is 36.4%; in data set [3] (setting [9]), 63.6%.
